Laboratory results taken from paper PMC5663926, “In vivo near-infrared imaging of ErbB2 expressing breast tumors with dual-axes confocal endomicroscopy using a targeted peptide” (Scientific Reports, 2017).

What was measured:
ErbB2 on SKBR3 cells = assay: Binding co-localization with anti-ErbB2 antibody on cells; assay type: cell-based, human; conditions: KSP*-Cy5.5 and anti-ErbB2-AF488, average of 3 independent measurements
Description: […] The cells were washed and fixed with 4% PFA for 5 min, and then incubated with primary anti-ErbB2 and secondary AF488-labeled antibody.
For imaging, we used an inverted confocal microscope (Olympus FV1200) with a 63X water immersion objective and λex = 748 nm to excite IRDye800CW, λex = 405 nm for DAPI, and λex = 488 nm for Alexa Fluor 488. For antibody staining, the cells were pre-fixed with cold methanol for 10 min at −20 °C and blocked with 2% BSA for 30 min at room temperature (RT). Cells were incubated with a 1:450 dilution of anti-ErbB2 antibody (clone 111.6, Thermo Scientific) overnight at 4 °C. The cells were then washed with PBS 3X, and secondary goat […] antibody labeled with Alexa-Fluor 488 (AF488) was added to the cells for 1 hour at RT. The cells were washed further with PBS and mounted onto cover glass. Fluorescence intensities were measured from 3 randomly positioned boxes with dimensions of 20 × 20 μm^2, and were quantified using custom Matlab (Mathworks) software.

[1] = test system: ErbB2 on SKBR3 human breast cancer cells; assay: siRNA knockdown of ErbB2 in SKBR3 cells, binding of labeled ligand; assay type: cell-based
Description: We performed siRNA knockdown of ErbB2 in SKBR3 human breast cancer cells to validate specific binding of KSP* to ErbB2.
(§1) ~10^4 human breast cancer cells were seeded on 1 mm thick cover glass, and grown to ~80% confluence in 12 well plates. The cells were gently washed with cold PBS and blocked with 2% BSA before incubation with peptides. 1 μM of IRDye800CW-labeled peptides mixed with 2% BSA was added to each well and incubated at 4 °C for 1 hour. After incubation for […], the cells were washed with PBS 3X, fixed in ice cold 4% PFA for 10 min, and washed with PBS 1X. The cells were then embedded on microscope slides with 5 μL of ProLong Gold reagent containing DAPI (Invitrogen). SKBR3 cells were cultured in 6-well plates at 30–40% confluence in culture media supplemented with 10% fetal bovine serum without antibiotics. The cells were transfected with siRNA with a final concentration of […] using oligofectamine (Thermo Scientific).
We examined ErbB2 knockdown in SKBR3 cells using ON-TARGETplus human siRNA (#L-003126–00–0005), ON-TARGETplus Non-targeting pool (#D-001810–10–05), and DharmaFECT transfection reagents (Thermo Scientific) per manufacturer instructions. We transfected SKBR3 cells with either siErbB2 (targeting siRNA) or siCL (non-targeting siRNA) for control at a final concentration of […] using oligofectamine (Thermo Scientific).

[2] = target: ErbB2 extracellular domain 3; conditions: cited from earlier work
ErbB2 = assay: Competition with unlabeled peptide for binding of labeled KSP* to cells; assay type: cell-based, human; conditions: unlabeled peptide 0, 100, 250, 500, 1000 μM, 30 min at 4 °C; for effect of unlabeled peptide on binding of KSP*-IR800: BT474 cells as per Results text, then 0.5 μM labeled peptide; for effect of unlabeled peptide on mean fluorescence intensity of KSP*-Cy5.5: SKBR3 cells, one-way ANOVA (Fig. 2 legend)
Description: We performed competition by adding either unlabeled KSP* or PPS* peptide to block binding of KSP*-IR800 to BT474 cells. […] We also observed good co-localization of binding between KSP*-Cy5.5 (red) and AlexaFluor488-labeled anti-ErbB2 antibody (green) with Pearson’s correlation coefficient ρ = 0.70, Fig. 2P–S.
Specific binding of KSP*-IR800 to SKBR3 cells was validated using competition with unlabeled KSP* peptide. SKBR3 cells were grown to ~70% confluence on coverslips in triplicate. Unlabeled KSP* at concentrations of 0, 100, 250, 500, and 1000 μM was incubated with the cells for 30 min at 4 °C. The cells were washed with PBS 3X, and further incubated with 0.5 μM of KSP*-IR800 for another 30 min at 4 °C. The cells were washed with PBS 3X and fixed with 4% PFA for 10 min. The cells were washed with PBS and then mounted with ProLong Gold reagent containing DAPI (Invitrogen). Confocal fluorescence images were collected and intensities from 6 independent images at each concentration were quantified using custom Matlab (Mathworks) software.

[3] = test system: ErbB2 on BT474 (ErbB2+) and MDA-MB-231 (ErbB2−) human breast cancer cells; assay: Confocal microscopy of NIR-labeled peptide binding to breast cancer cells; assay type: cell-based; conditions: 1 μM peptide, 2% BSA, 4 °C, 1 hour
Description: as §1
For imaging, we used an inverted confocal microscope (Olympus FV1200) with a 63X water immersion objective and λex = 748 nm to excite IRDye800CW, λex = 405 nm for DAPI, and λex = 488 nm for Alexa Fluor 488. For antibody staining, the cells were pre-fixed with cold methanol for 10 min at −20 °C and blocked with 2% BSA for 30 min at room temperature (RT). […] Fluorescence intensities were measured from 3 randomly positioned boxes with dimensions of 20 × 20 μm^2, and were quantified using custom Matlab (Mathworks) software.

[4] = test system: ErbB2 in human breast specimens (IDC, DCIS, normal); assay: Immunofluorescence of human breast specimens ex vivo
From the text: We evaluated peptide binding to sections of human breast specimens to assess potential for clinical translation. […] Representative histology (H&E) is shown, Fig. 6D. We also observed strong co-localization of binding (arrow) between KSP*-IR800 peptide (red) and AF488-labeled anti-ErbB2 antibody (green) to ErbB2 + IDC specimens with Pearson’s correlation coefficient of ρ = 0.53, Fig. 6E,F. We quantified the fluorescence intensities, Fig. 6G. […] Representative histology (H&E) for DCIS is shown, Fig. 6M. […] Representative histology (H&E) for normal is shown, Fig. 6O.
(§2) Resected human xenograft breast tumors and normal breast tissues from n = 8 mice were formalin-fixed, paraffin embedded, and cut in 5 μm thick sections. IDC and normal human breast tissues were collected and prepared with the same protocol. The specimens were cut in 5 μm sections, and deparaffinization, rehydration and antigen unmasking was performed, as described previously. Blocking was performed with DAKO protein blocking agent (X0909, DAKO) for 1 hour at RT. Sections were then incubated with 0.5 μM of either peptide in 2% BSA for 10 min at RT. The sections were washed with PBS 3X and mounted with Prolong Gold reagent containing DAPI (Invitrogen).
Formalin-fixed, paraffin-embedded (FFPE) human breast specimens known to express ErbB2 (n = 4 patients) were obtained from the archived tissue bank in the Department of Pathology at the University of Michigan. 5 μm sections were cut and rehydrated to water. Slides were counterstained with Harris Hematoxylin for 5 sec, dehydrated, and cover-slipped. Heat induced epitope retrieval was performed with FLEX TRS High pH Retrieval buffer (DAKO, 9.01) for 20 min. After peroxidase blocking, the antibody Her2/neu rabbit monoclonal (Cell Marque Corporation, SP3 cat#237R-16) was applied at a dilution of 1:150 at RT for 20 min. The EnVision + detection System HRP anti-rabbit (DAKO, #K4002) was used for detection. DAB chromogen was then applied for 10 min. Sections of human breast specimens were mounted onto glass slides (Superfrost Plus, Fischer Scientific). The tissues were deparaffinized, and antigen retrieval was performed, as discussed above. Histology and IHC were performed to evaluate for ErbB2 expression.
Human breast specimens were embedded in paraffin and antigen unmasking was performed as described above. Blocking was performed with 2% BSA solution in PBS at RT for 1 hour. We used 1:250 dilution of monoclonal mouse anti-ErbB2 antibody (clone 111.6, Thermo Scientific). The sections were incubated at RT for 1 hour with primary antibody and then washed in PBS for 5 min. […] Fluorescence intensities were measured from 3 randomly positioned boxes with dimensions of 20 × 20 μm^2.

[5] = Absorption and fluorescence emission spectra; assay type: physicochemical
From the text: We synthesized the ErbB2 and control peptides using standard Fmoc mediated solid-phase chemical synthesis and labeled with either Cy5.5 or IRDye800 fluorophores via standard bio-conjugation techniques. We used IRDye800CW-malemide (LiCor Biosciences) to label the peptide via a GGGSC linker at the C-terminus. The coupling yield was about 20–30% in aqueous solution without use of catalysis. IRDye800CW was used because of its high quantum yield, photostability, and lack of toxicity. The peptide absorption spectrum was measured using a UV-vis spectrophotometer in the 300–900 nm range (NanoDrop 2000, Thermo Scientific). Fluorescence emission from a 5 μM peptide solution diluted in PBS was collected with a fiber coupled spectrophotometer (Ocean Optics) using a diode pumped solid state laser (Technica Laser Inc) with excitation at λex = 780 nm. The spectra were plotted using Origin 9.5 software (OriginLab Corp).

[6] = test system: ErbB2 in BT474 and MDA-MB-231 xenograft tumor and normal breast sections; assay: Immunofluorescence of human xenograft breast tumor sections; set-up: species or system mouse; conditions: 0.5 μM peptide, 10 min at RT
Description: Representative histology (H&E) for the MDA-MB-231 tumor is shown, Fig. S7I. […] Representative histology (H&E) for normal is shown, Fig. S7M.
as §2

In the case of KSPNPRF [KSP*-Cy5.5], the “Pearson's correlation coefficient ρ for co-localization with anti-ErbB2-AF488” value (ErbB2 on SKBR3 cells) is reported as 0.70, the “fold greater signal, siCL control versus siErbB2 knockdown cells” value ([1]; SKBR3, average of 3 independent measurements, ANOVA, difference of differences significant) is reported as 4.42 fold and the “reduction in fluorescence intensities in ErbB2 knockdown cells” value ([1]; SKBR3 siErbB2 versus siCL, qualitative) is reported as “significant reduction”. For the same substance, the “binding to cell surface” value ([1]; control SKBR3 cells (siCL), qualitative) was “strong binding”, the Kd ([2]; peptide labeled with Cy5.5, read-out: affinity) was 20 nM and the “binding kinetics (rate)” value ([2]; peptide labeled with Cy5.5) was 0.14 min⁻¹.

For KSPNPRF [KSP*], the “effect of unlabeled peptide on binding of KSP*-IR800” value (ErbB2) was “decreases significantly in a concentration dependent manner” and the “effect of unlabeled peptide on mean fluorescence intensity of KSP*-Cy5.5” value (ErbB2) was “decreases significantly in a concentration dependent manner”.

For “PPSNFKR [PPS*, unlabeled scrambled control peptide]”, the “effect of unlabeled peptide on binding of KSP*-IR800” value (ErbB2) was “significantly less effective competition” and the “effect of unlabeled peptide on mean fluorescence intensity of KSP*-Cy5.5” value (ErbB2) was “significantly less affected”.

In the case of PPSNFKR [PPS*-IR800], the “fold greater signal, BT474 versus MDA-MB-231 cells” value ([3]; average of 3 independent measurements, ANOVA on log-transformed data, difference of differences significant) is reported as 1.04 fold, the “signal to cell surface” value ([3]; either cell (BT474 and MDA-MB-231), qualitative) is reported as “Minimal signal” and the “binding / signal on immunofluorescence” value ([4]; ductal carcinoma in situ (DCIS), 0.5 μM peptide, 10 min at RT, qualitative) is reported as “minimal signal”. For the same substance, the “binding / signal on immunofluorescence” value ([4]; invasive ductal carcinoma (IDC), 0.5 μM peptide, 2% BSA, 10 min at RT, qualitative) was “minimal signal”, the “fold greater signal, IDC (ErbB2+) versus normal (ErbB2−) breast” value ([4]; n = 4 patients, ANOVA on log-transformed data, difference of differences not significant, P = 0.09) was 1.30 fold and the staining on immunofluorescence ([4]; normal human breast tissue, 0.5 μM peptide, 10 min at RT, qualitative) was “minimal staining”. For the same substance, the “peak emission λem” value ([5]; 5 μM peptide solution diluted in PBS, excitation 780 nm) was 800 nm, the “maximum absorbance λex” value ([5]; UV-vis spectrophotometer, 300–900 nm range) was 780 nm and the “binding / signal on immunofluorescence” value ([6]; BT474 xenograft tumor sections, 2% BSA, qualitative) was “minimal signal”. For the same substance, the “fluorescence intensity on immunofluorescence” value ([6]; MDA-MB-231 tumor sections, qualitative) was “minimal”, the “fluorescence intensity on immunofluorescence” value ([6]; normal breast sections, qualitative) was “minimal” and the “fold increase, BT474 versus MDA-MB-231 tumors” value ([6]; xenograft tumor sections, ANOVA with terms for 6 groups on log-transformed data) was 1.8 fold.
